From publication PMC6522510 (Nature Communications, 2019)

Assays:
Parameters in all cases: species or system AML cell lines (8); Primary HTS, single concentration about 10 uM, Cell Titer Glo viability; log10 luminescence, per cent inhibition relative to cycloheximide control
Details in all cases: 72 h, relative to cycloheximide control, log10 luminescence; inhibitor
CHRF288-11 = system: CHRF288-11
CMK = system: CMK
CMS = system: CMS
M07e = system: M07e
ML-2 = system: ML-2
MOLM-13 = system: MOLM-13
MV4-11 = system: MV4-11
U937 = system: U937

Compound	CHRF288-11 %inh (CHRF288-11) [%]	CMK %inh (CMK) [%]	CMS %inh (CMS) [%]	M07e %inh (M07e) [%]	ML-2 %inh (ML-2) [%]	MOLM-13 %inh (MOLM-13) [%]	MV4-11 %inh (MV4-11) [%]	U937 %inh (U937) [%]
N#Cc1ccc2c(-c3ccnc(NC4CC4)n3)c(-c3ccc(F)cc3)nn2c1 [SJ000573143-1, U15304/34/1]	-0.1104	2.803	2.587	7.135	1.142	2.3	-1.164	0.4809
Fc1ccc(-c2ncn(CCCN3CCOCC3)c2-c2ccncc2)cc1 [SJ000573144-1, LDD-19018-277B]	5.233	29.46	-0.05724	0.1764	2.361	2.986	-0.2277	-0.4661
O=C(Nc1n[nH]c2nc(-c3ccco3)c(Br)cc12)C1CC1 [SJ000573145-1, AG201339-071A1]	-1.607	0.1482	6.31	-5.829	-0.5766	0.2319	10.91	-0.3135
CN(C)CCCn1c(-c2nonc2N)nc2cnccc21 [SJ000573146-1, NB100580-138A1]	-1.122	9.262	-2.565	-3.074	-0.381	-2.29	-1.385	0.1912
O=C(Nc1n[nH]c2cc(-c3ccc(F)cc3)ccc12)C1CC1 [SJ000573147-1, VB100064-137A1]	23.72	55.62	-1.795	6.083	9.118	13.56	-2.4	28.55
O=C1NC(=O)C(c2ccc(Cl)cc2)=C1Nc1ccc(Cl)c(C(=O)O)c1 [SJ000573148-1, DH98298-170B2]	-1.873	-5.939	-1.744	-2.934	0.6305	-3.138	-6.646	-3.231
O=C(Nc1ccc(Oc2ccc3[nH]c(NC(=O)c4ccccc4)nc3c2)cc1)Nc1cc(C(F)(F)F)ccc1F [SJ000573149-1, T261/94/4]	9.652	59.46	32.92	22.27	33.71	108.7	91.44	43.21
CS(=O)(=O)CCNCc1ccc(-c2ccc3ncnc(Nc4ccc(OCc5cccc(F)c5)c(C(F)(F)F)c4)c3c2)o1 [SJ000573152-1, U14859/108/1]	2.26	-0.9918	-1.451	0.4672	2.813	2.035	3.001	2.673
O=C(Nc1n[nH]c2nc(-c3ccc(O)cc3)c(Br)cc12)C1CC1 [SJ000573153-1, AN100368-079A1]	61.88	121.4	105	20.28	13.84	85.66	59.64	31.9
c1ccc(Oc2ccc(Nc3ncc(-c4ccccc4)o3)cc2)cc1 [SJ000573154-1, U15924/95/2]	-6.587	-2.277	-3.51	-0.6223	0.5718	-2.365	-2.884	3.231
COc1cccc(-n2ncc3c(N/N=C/c4ccc(C(=O)NCCN(C)C)cc4)ncnc32)c1 [SJ000573155-1, U16945/190/1]	128.6	38.62	51.58	23.03	12.67	33.75	45.9	26.01
CCn1c(-c2nonc2N)nc2ccccc21 [SJ000573156-1, U17602/18/1 | JT100597-005A1]	-4.898	-4.724	-3.86	0.4432	2.051	-2.502	-3.157	-1.491
Cc1cc(-c2ccco2)cc(C)c1/C=C/c1cncc(-c2nn[nH]n2)c1 [SJ000573157-1, T209/165/1]	6.913	-3.964	1.933	4.709	0.8109	-1.72	-0.5767	-2.587
COC(=O)Nc1nc2ccc(Oc3ccc(NC(=O)Nc4cccc(Cl)c4)cc3)cc2[nH]1 [SJ000573158-1, T278/6/1]	9.893	60.27	11.78	46.36	61.89	98.07	87.76	93.62
ON=C1CCc2cc(-c3nc(C4CCNCC4)[nH]c3-c3ccncc3)ccc21 [SJ000573159-1, DD48690-004A1]	-1.561	-2.711	1.757	1.161	3.813	2.332	-4.441	-1.918
O=C(O[C@H]1CN[C@H](C#Cc2cc3ncnc(Nc4ccc5c(ccn5Cc5cc(F)ccc5F)c4)c3s2)C1)N1CCOCC1 [SJ000573160-1, U20298/150/2]	10.62	5.697	12.05	-0.7728	4.843	10.52	8.297	14.13
Nc1nonc1-c1nc2cnccc2n1C1CC1 [SJ000573161-1, SD100950-085A1]	4.079	26.4	4.949	-4.33	6.372	2.819	17.34	17.71
COC(=O)Nc1nc2cc(Oc3ccc(NC(=O)Nc4cccc(C(=O)O)c4)cc3)ccc2[nH]1 [SJ000573163-1, T261/87/3]	17.31	83.28	3.532	13.83	30.21	34.2	11.57	31.9
